Assay results as given in US12383548B2, “Antibacterial quinolines” (priority 2019, dated 2025).
pIC50: −log10 of the molar value. In brackets after ≈: the same amount, converted by molar mass. Like-named read-outs stand apart in the source and are kept apart here.

What was measured:
[1] = tested on: susceptible H37Rv M. tuberculosis, strain ATCC 25618; test: Mycobacterium tuberculosis susceptibility assay REMA (resazurin microtiter assay); type: cell-based; settings: Mycobacterium tuberculosis, 144 h, read-out: REMA MIC
[2] = in vitro; type: in vitro ADME; settings: human, plasma
Description: The percentage of the test compounds remaining after incubation in plasma and their half-lives (T1/2) were calculated.

[3] = in vitro; type: in vitro ADME; settings: human, plasma, pH 7.4
Description: The assay was performed in a multiple-use 96-well dialysis unit (HTD96b dialyzer). […] 120 μl of non-diluted plasma spiked with the compound (1 μM, 1% final DMSO concentration) was added to one chamber and the same volume of phosphate buffer saline pH 7.4 to the other chamber. HTD96b dialyzer was covered with adhesive sealing film and incubated at 37° C. and 100 rpm orbital shaking for 5 hours. […] For sample preparation, an aliquot of the content of each chamber was mixed with the same volume of the blank opposite matrix. In order to define non-specific loss of the compound during this assay, standard solution was created by mixing an aliquot of spiked plasma with blank buffer without dialysis. Samples were diluted 10-fold with 100% acetonitrile with subsequent plasma proteins sedimentation by centrifugation. Supernatants were analysed using a Shimadzu VP HPLC system with a reverse phase column, coupled with a tandem mass spectrometer API 3000 (PE Sciex). The both positive and negative ion modes of the TurbolonSpray ion source were used. […]
The percentage of plasma protein bounded compound and its recovery were calculated using the equations below:
The percentage of plasma protein bounded compound and its recovery were calculated using the values obtained for each compound in the quantification of the 3 samples (in buffer, plasma and standard solution).

[4] = physchem; type: physicochemical; settings: pH 7.4
Description: The solution was allowed to mix in a rotator for 1 hour at 30 rpm.

[5] = tested on: HepG2 cell line; test: in vitro cytotoxicity assay (MTS tetrazolium reduction, cell viability); type: cell-based; settings: Homo sapiens, HepG2, 48 h
Description: In an embodiment, the in vitro cytotoxicity assay was carried out as follows. […] The assay was performed in 96 well plates for 48 h at 37° C. and 5% CO2 in incubation medium (low glucose DMEM with Glutamax, 10% FBS, 1% Pen/Strep and DMSO). Cells were exposed to 8 different compound concentrations in successive dilutions (usually, base 2), plus a positive control (a compound in a concentration known to decrease cell viability above 50%) and a negative control (incubation medium). Six replicate wells were assayed for each condition. Compound stock solutions were prepared in DMSO at 20 mM, whenever possible, filter sterilized, aliquoted and stored at −20° C. The maximum compound concentrations tested depend on its solubility in incubation medium, and on the maximum DMSO percentage allowable without loss of cell viability. At the end of the incubation period, tetrazolium reagent was added (CellTiter 96® AQueous Solution from Promega); cells were incubated for another 3 hours in order to promote tetrazolium reduction to formazan by viable cells. The amount of soluble formazan produced was evaluated by 490 nm absorbance reading in a spectrophotometer plate reader.

[6] = Table 1, MTB growth, H37Rv, 6 days at 37° C., Middlebrook 7H9
[7] = Table 2, MTB growth, H37Rv, 6 days at 37° C., Middlebrook 7H9
[8] = Table 1, cytotoxicity, MTS, read-out: IC50
[9] = Table 2, cytotoxicity, MTS, read-out: IC50

SMILES | MIC [1, 6] [µM] | MIC [1, 7] [µM] | half-life at 1 μM [2] [h] | fraction unbound at 5 h, 1 μM [3] | logD [4] | pIC50 [5, 8] | pIC50 [5, 9] | MIC [1] [µM] | pIC50 [5]
CCOC(=O)C1CCN(c2ccc3cc(-c4cccc(O)c4)ccc3n2)CC1 [Compound 26, ethyl 1-(6-(3-hydroxyphenyl)quinolin-2-yl)piperidine-4-carboxylate] | < 7.8 | < 7.8 | > 2 | ≤ 0.01 | > 4.5 | < 4.00 | < 4.00 |  | 
CCOC(=O)C1CCN(c2ccc3cc(-c4cnc(OC)nc4)ccc3n2)CC1 [Compound 4, ethyl 1-(6-(2-methoxypyrimidin-5-yl)quinolin-2-yl)piperidine-4-carboxylate] | < 7.8 | < 7.8 |  |  |  | < 4.00 | < 4.00 |  | 
CCOC(=O)C1CCN(c2ccc3cc(-c4ccc(OC)cc4)ccc3n2)CC1 [Compound 20, ethyl 1-(6-(4-methoxyphenyl)quinolin-2-yl)piperidine-4-carboxylate] |  |  |  |  |  |  |  | 7.8 to 15.6 (≈ 3.05 to 6.09 µg/mL) | < 4.00
